Assay results: patent publication US20210298305A1, “USE OF A DIFLUORO-(2-HYDROXYPROPYL)PYRIDINE COMPOUND AS A FUNGICIDE FOR CONTROL OF PHYTOPATHOGENIC FUNGI OF WHEAT” (Dow AgroSciences LLC, priority 2016, published 2021)

Assays:
[1] = system: mixture of Fusarium graminearum and Fusarium culmorum isolates; format: in vivo; conditions: 100 g ai/ha, with Agnique BP-420
[2] = system: Blumeria graminis f. sp. tritici (ERYSGT); test: Field assessment of powdery mildew in Durum wheat, three trials; format: in vivo
[3] = system: Puccinia striiformis (PUCCST); test: Field assessment of yellow (stripe) rust in winter wheat, three curative trials; conditions: tank mix with Trycol 5941
Description: A fungicidal treatment containing Compound I was assessed against yellow rust of wheat (PUCCST) in three separate field trials. In each trial, all Compound I treatments were applied in a tank mix with Trycol 5941 (50% w/w) at 0.2% v/v as an adjuvant. […] The treatment was part of an experimental trial designed as a randomized complete block with four replications and a plot of approximately 1×2 m. Treatments were applied at water volume of 200 L/ha, using a backpack plot sprayer (BKPCKAIR, 1 m band width, FLATFAN F110-03 Lurmark nozzle) and pressurized at 180 kPa. Disease severity (% visual infection) was assessed 4 times on leaf 1 (L1, flag leaf, 33-47 DAA) and 5 times on leaf 2 (L2, 27-54 DAA).
The treatment was part of an experimental trial designed as a randomized complete block with four replications and a plot of approximately 2×3 m. Treatments were applied at water volume of 200 L/ha, using a backpack precision plot sprayer (BKCKENG, 2 m band width, FFA110-015 Hardi nozzle) and pressurized at 200 kPa. Disease severity (% visual infection) was assessed following application A one time on leaf 2 (23 DAA). Following application B, disease severity was assessed 4 times on leaf 1 (11-45 DAA) and 3 times on leaf 2 (11-31 DAA).
The treatment was part of an experimental trial designed as a randomized complete block with four replications and a plot of approximately 2×3 m. Treatments were applied at water volume of 150 L/ha, using a backpack precision plot sprayer ([sequence], 2 m band width, FLAT FAN FF015 nozzle). Disease severity (% visual infection) was assessed 3 times on leaf 1 (47-68 DAA) and 4 times on leaf 2 (36-68 DAA).
Disease severity (percentage of visual diseased foliage on whole plot or leaves) in all three field trials was recorded following EPPO PP1/26 guideline prescriptions. Area under the disease progress curve (AUDPC) was calculated for each plot in each of the three trials using the sets of recorded severity data. Relative AUDPC (% control based on AUDPC) was calculated as percent of the nontreated control.

[4] = system: Puccinia recondita (PUCCRT); test: Field assessment of brown rust in spring wheat (curative tests); format: in vivo; conditions: for Test A % Control (based on AUDPC): early curative; for Test B % Control (based on AUDPC): late curative
[5] = system: Parastagonospora nodorum (LEPTNO); test: Field assessment of glume blotch in spring wheat (protectant and curative); format: in vivo; conditions: for 2 DC percent control based on AUDPC: 2 Day curative; for 3 DP percent control based on AUDPC: 3 Day protectant
Description: A fungicidal treatment containing Compound I, sprayed alone in an EC formulation […] and tank mixed with an adjuvant (Agnique BP-420, 50% w/w at 0.3% v/v), was applied at B37-39 growth stage of spring wheat ([…] variety) for protectant tests at rates of 25, 50, 100 and 150 g ai/ha. After three days, the wheat plants were artificially inoculated with Parastagonospora nodorum at B39 growth stage of wheat. Compound I was then applied two days later (same rates and formulations) to the plants at B39-41 growth stage of wheat (2 day curative test).

[6] = 25 g ai/ha, with adjuvant Agnique BP-420
[7] = 50 g ai/ha, with adjuvant Agnique BP-420
[8] = 100 g ai/ha, with adjuvant Agnique BP-420
[9] = 150 g ai/ha, with adjuvant Agnique BP-420

Compound: N#Cc1ccc(Oc2ccc(C(F)(F)C(O)(Cn3ncnc3S)c3ccc(F)cc3F)nc2)cc1 (stereo not shown) [Compound I, 4-((6-(2-(2,4-difluorophenyl)-1,1-difluoro-2-hydroxy-3-(5-mercapto-1H-1,2,4-triazol-1-yl)propyl)pyridin-3-yl)oxy)benzonitrile]
- Percent Control (calculated with FHB index using incidence and % infection) ([1]; sprayed on heads at flowering one day before inoculation, winter wheat): B (51-75)
- Yield ([1]; winter wheat crop harvest, untreated 6.0): 8.4 t/ha
- % Control (AUDPC over 3 trials) ([2]; 25 g ai/ha, EC formulation, Adjuvant X (Plurafac LF 1300 EC)): B (51-75)
- % Control (AUDPC over 3 trials) ([2]; 25 g ai/ha, SC formulation, Adjuvant Y (Agnique BP420 EW with Agnique FOH TDA-9)): B (51-75)
- % Control (AUDPC over 3 trials) ([2]; 50 g ai/ha, EC formulation, Adjuvant X (Plurafac LF 1300 EC)): B (51-75)
- % Control (AUDPC over 3 trials) ([2]; 50 g ai/ha, SC formulation, Adjuvant Y (Agnique BP420 EW with Agnique FOH TDA-9)): B (51-75)
- % Control (AUDPC over 3 trials) ([2]; 75 g ai/ha, EC formulation, Adjuvant X (Plurafac LF 1300 EC)): A (76-100)
- % Control (AUDPC over 3 trials) ([2]; 75 g ai/ha, SC formulation, Adjuvant Y (Agnique BP420 EW with Agnique FOH TDA-9)): B (51-75)
- % Control (AUDPC over 3 trials) ([2]; 100 g ai/ha, EC formulation, Adjuvant X (Plurafac LF 1300 EC)): A (76-100)
- % Control (AUDPC over 3 trials) ([2]; 100 g ai/ha, SC formulation, Adjuvant Y (Agnique BP420 EW with Agnique FOH TDA-9)): A (76-100)
- % Control (AUDPC over 3 trials) ([2]; 150 g ai/ha, EC formulation, Adjuvant X (Plurafac LF 1300 EC)): A (76-100)
- % Control (AUDPC over 3 trials) ([2]; 150 g ai/ha, SC formulation, Adjuvant Y (Agnique BP420 EW with Agnique FOH TDA-9)): A (76-100)
- Curative Trials (% Control), AUDPC average over three trials ([3]; 50 g ai/ha): B (51-75)
- Curative Trials (% Control), AUDPC average over three trials ([3]; 100 g ai/ha): B (51-75)
- Curative Trials (% Control), AUDPC average over three trials ([3]; 150 g ai/ha): B (51-75)
- Test A % Control (based on AUDPC) [4, 6]: A (76-100)
- Test A % Control (based on AUDPC) ([4]; 50 g ai/ha, no adjuvant): A (76-100)
- Test A % Control (based on AUDPC) [4, 7]: A (76-100)
- Test A % Control (based on AUDPC) ([4]; 100 g ai/ha, no adjuvant): A (76-100)
- Test A % Control (based on AUDPC) [4, 8]: A (76-100)
- Test A % Control (based on AUDPC) [4, 9]: A (76-100)
- Test B % Control (based on AUDPC) [4, 6]: B (51-75)
- Test B % Control (based on AUDPC) ([4]; 50 g ai/ha, no adjuvant): A (76-100)
- Test B % Control (based on AUDPC) [4, 7]: A (76-100)
- Test B % Control (based on AUDPC) ([4]; 100 g ai/ha, no adjuvant): A (76-100)
- Test B % Control (based on AUDPC) [4, 8]: A (76-100)
- Test B % Control (based on AUDPC) [4, 9]: A (76-100)
- 2 DC percent control based on AUDPC [5, 6]: C (26-50)
- 2 DC percent control based on AUDPC ([5]; 50 g ai/ha, no adjuvant): C (26-50)
- 2 DC percent control based on AUDPC [5, 7]: C (26-50)
- 2 DC percent control based on AUDPC [5, 8]: B (51-75)
- 2 DC percent control based on AUDPC [5, 9]: B (51-75)
- 3 DP percent control based on AUDPC [5, 6]: C (26-50)
- 3 DP percent control based on AUDPC ([5]; 50 g ai/ha, no adjuvant): C (26-50)
- 3 DP percent control based on AUDPC [5, 7]: C (26-50)
- 3 DP percent control based on AUDPC [5, 8]: B (51-75)
- 3 DP percent control based on AUDPC [5, 9]: B (51-75)
